Values quoted from earlier work in patent US20110160154A1, “SUBSTITUTED PIPERAZINES” (Auspex Pharmaceuticals, Inc., priority 2007, published 2011).

How the values were obtained:
[1] = tested on: late sodium current (INa); details: literature value (Antzelevitch et al. 2004); read-out: IC50 for inhibition of late sodium current (INa)
[2] = background statement; ranolazine must be taken frequently

## COc1ccccc1OCC(O)CN1CCN(CC(=O)Nc2c(C)cccc2C)CC1 (centres unmarked) [ranolazine, N-(2,6-dimethyl-phenyl)-2-{4-[2-hydroxy-3-(2-methoxy-phenoxy)-propyl]-piperazin-1-yl}-acetamide]
[1]
  IC50: 5 to 21 µM
[2]
  half-life: less than two
